The values below come from US12642766B2, “EDB-FN as biomarker of cancer and/or brain disease and nanodrug delivery system targeting same” (KOREA UNIVERSITY RESEARCH AND BUSINESS FOUNDATION, priority 2020, dated 2026).

Series [1] concerns EDB-FN. As to the kind of experiment: siRNA-mediated EDB-FN knockdown confirmed by qRT-PCR. The class given is cell-based, human. As to conditions: U87MG cells; GAPDH internal control; control siRNA 1.00±0.08. Here is the method: Cells were collected, and ribonucleic acid (RNA) was extracted with RiboEx using an RNA isolation kit (GeneAll, Seoul, Republic of Korea). Complementary DNA (cDNA) was synthesized by reverse transcription using a total of 1 μg of RNA from each sample. As a result, the following genes were estimated: EDB-FN gene (forward primer: 5′-[…]-3′; reverse primer: 5′-[…]-3′); glyceraldehyde 3-phosphate dehydrogenase) gene (forward primer: 5′-[…]-3′; reverse primer: 5′-[…]-3′. The polymerase chain reaction protocol was as follows: initial denaturation at 94° C. for 5 min; 30 repetitions of denaturation at 94° C. for 1 min, primer annealing at 55° C. for 1 min, and extension at 72° C. for 2 min; and final extension at 72° C. for 7 min 1 μg of cDNA was added to 4 μL of ultrapure water, 5 μL of SYBR Green real-time mixture (Takara, Tokyo, Japan) was added before performing a real-time polymerase chain reaction (Qiagen, Tokyo, Japan). The messenger RNA (mRNA) level of each gene was quantified using the 2^−ΔΔ^Ct method and normalized with the messenger RNA of glyceraldehyde 3-phosphate dehydrogenase.
EDB-FN-specific siRNA and scrambled control siRNA were purchased from Bioneer (Daejeon, Republic of Korea). The target sequence of EDB-FN siRNA used for RNA interference is as follows: sense; […], antisense; […]. […] Transfection efficacy was analyzed after 48 hours.

Series [2] has as its target EDB-FN (Homo sapiens, UniProt P02751). As to conditions: read-out: affinity of binding to EDB-FN; cited from earlier work.

Ends that are not written are not given here. Where only a bound is given, the exact number is not on record here.

EDB-FN (Homo sapiens, UniProt P02751), sequence (P02751 32-2477): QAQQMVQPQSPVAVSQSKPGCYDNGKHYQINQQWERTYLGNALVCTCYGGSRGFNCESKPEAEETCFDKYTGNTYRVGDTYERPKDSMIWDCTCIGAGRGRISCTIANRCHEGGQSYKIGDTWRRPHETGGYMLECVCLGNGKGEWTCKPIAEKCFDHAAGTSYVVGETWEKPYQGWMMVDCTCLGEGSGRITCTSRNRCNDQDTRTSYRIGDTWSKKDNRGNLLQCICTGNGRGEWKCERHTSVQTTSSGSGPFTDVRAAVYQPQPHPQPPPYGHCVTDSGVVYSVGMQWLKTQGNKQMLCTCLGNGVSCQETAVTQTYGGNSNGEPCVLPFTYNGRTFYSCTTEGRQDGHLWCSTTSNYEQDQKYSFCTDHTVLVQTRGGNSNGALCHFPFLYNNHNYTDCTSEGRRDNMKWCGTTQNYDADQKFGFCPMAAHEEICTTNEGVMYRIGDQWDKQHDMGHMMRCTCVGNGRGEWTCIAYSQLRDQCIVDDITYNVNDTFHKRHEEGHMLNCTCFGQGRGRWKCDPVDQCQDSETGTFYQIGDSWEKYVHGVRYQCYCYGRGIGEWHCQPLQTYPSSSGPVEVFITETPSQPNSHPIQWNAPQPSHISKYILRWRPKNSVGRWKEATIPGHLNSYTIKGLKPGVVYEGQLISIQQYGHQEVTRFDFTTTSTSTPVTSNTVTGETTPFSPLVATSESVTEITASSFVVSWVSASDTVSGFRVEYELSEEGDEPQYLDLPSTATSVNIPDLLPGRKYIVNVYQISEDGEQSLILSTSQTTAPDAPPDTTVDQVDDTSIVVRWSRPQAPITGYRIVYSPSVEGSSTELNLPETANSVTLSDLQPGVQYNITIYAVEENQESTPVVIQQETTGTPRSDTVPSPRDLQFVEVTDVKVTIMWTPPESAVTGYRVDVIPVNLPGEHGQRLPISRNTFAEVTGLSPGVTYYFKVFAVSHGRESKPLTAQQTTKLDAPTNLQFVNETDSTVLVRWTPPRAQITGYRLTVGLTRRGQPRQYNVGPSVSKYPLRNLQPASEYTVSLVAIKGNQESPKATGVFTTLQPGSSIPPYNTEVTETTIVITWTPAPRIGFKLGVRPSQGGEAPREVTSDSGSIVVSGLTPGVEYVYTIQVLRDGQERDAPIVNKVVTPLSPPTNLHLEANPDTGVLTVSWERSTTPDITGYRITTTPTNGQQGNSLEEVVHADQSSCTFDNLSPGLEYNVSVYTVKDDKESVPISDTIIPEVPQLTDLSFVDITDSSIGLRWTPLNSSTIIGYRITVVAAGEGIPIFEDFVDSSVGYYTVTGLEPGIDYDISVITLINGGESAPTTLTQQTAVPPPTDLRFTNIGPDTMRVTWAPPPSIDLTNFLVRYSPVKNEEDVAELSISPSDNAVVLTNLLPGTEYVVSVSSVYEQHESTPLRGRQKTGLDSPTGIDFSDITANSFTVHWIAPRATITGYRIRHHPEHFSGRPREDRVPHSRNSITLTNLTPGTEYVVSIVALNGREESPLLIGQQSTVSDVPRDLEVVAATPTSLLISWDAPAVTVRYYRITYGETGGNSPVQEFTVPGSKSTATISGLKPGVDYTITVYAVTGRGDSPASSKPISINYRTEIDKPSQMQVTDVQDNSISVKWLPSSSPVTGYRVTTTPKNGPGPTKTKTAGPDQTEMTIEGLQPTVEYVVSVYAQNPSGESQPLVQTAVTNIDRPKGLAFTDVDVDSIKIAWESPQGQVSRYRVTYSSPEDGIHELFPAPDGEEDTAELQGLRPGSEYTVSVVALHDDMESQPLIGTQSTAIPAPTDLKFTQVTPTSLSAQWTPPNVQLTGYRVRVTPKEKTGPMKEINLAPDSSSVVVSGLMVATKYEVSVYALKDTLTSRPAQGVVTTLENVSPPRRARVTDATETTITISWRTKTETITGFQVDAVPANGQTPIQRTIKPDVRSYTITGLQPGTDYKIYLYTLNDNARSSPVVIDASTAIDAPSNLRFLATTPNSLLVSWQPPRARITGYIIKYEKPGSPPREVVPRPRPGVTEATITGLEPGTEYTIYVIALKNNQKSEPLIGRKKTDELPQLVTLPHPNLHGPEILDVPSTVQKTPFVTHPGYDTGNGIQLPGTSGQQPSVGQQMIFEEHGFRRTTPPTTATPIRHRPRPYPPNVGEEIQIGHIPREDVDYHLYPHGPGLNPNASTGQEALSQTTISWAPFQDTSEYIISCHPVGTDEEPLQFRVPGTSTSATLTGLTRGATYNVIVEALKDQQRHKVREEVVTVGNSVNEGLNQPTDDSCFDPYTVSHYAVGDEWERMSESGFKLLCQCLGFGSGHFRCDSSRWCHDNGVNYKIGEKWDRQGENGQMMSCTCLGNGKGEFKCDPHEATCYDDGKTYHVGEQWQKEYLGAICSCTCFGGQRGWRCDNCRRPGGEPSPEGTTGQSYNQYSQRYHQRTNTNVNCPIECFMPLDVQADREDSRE

For the substance “EDB-FN siRNA: EDB-FN-specific siRNA; sense ACAGUCCCAGAUCAUGGAG, antisense CUCCAUGAUCUGGGACUGU (chemistry not given here)”, the “EDB-FN expression (qRT-PCR)” value with EDB-FN [1] was 0.45±0.01. On to “N′-CSSPIQGSWTWENGK(C)WTWGIIRLEQ-C′ (CSSPIQGSWTWENGK(Cys)WTWGIIRLEQ; listed as Homo sapiens) [APTEDB, EDB-FN-specific aptamer-like peptide (aptide)]”, for which the Kd with EDB-FN [2] was less than 0.1 µM.
